Test results taken from patent publication US20230257415A1, “COMPOUNDS FOR TREATING CNS DISORDERS” (SAGE THERAPEUTICS, INC., priority 2019, published 2023).
pIC50: −log10 of the molar value.

Molecular target: GABAA receptor
Assay: [35S]-TBPS binding assay, rat brain cortical membranes, in the presence of GABA
Details: inhibition of 3 nM [35S]-TBPS binding, 5 mM GABA, 90 min, room temp
Description: [35S]-t-Butylbicyclophosphorothionate (TBPS) binding assays using rat brain cortical membranes in the presence of 5 mM GABA has been described (Gee et al, J. Pharmacol. Exp. Ther. 1987, 241, 346-353; Hawkinson et al, Mol. Pharmacol. 1994, 46, 977-985; Lewin, A.H et al., Mol. Pharmacol. 1989, 35, 189-194).
Briefly, cortices are rapidly removed following decapitation of carbon dioxide-anesthetized Sprague-Dawley rats (200-250 g). The cortices are homogenized in 10 volumes of ice-cold 0.32 M sucrose using a glass/teflon homogenizer and centrifuged at 1500 x g for 10 min at 4° C. The resultant supernatants are centrifuged at 10,000 x g for 20 min at 4° C. to obtain the P2 pellets. The P2 pellets are resuspended in 200 mM NaCl/50 mM Na-K phosphate pH 7.4 buffer and centrifuged at 10,000 x g for 10 min at 4° C. This washing procedure is repeated twice and the pellets are resuspended in 10 volumes of buffer. Aliquots ([…]) of the membrane suspensions are incubated with 3 nM [^35S]-TBPS and […] aliquots of test drug dissolved in dimethyl sulfoxide (DMSO) (final 0.5%) in the presence of 5 mM GABA. The incubation is brought to a final volume of 1.0 mL with buffer. […] Following a 90 min incubation at room temp, the assays are terminated by filtration through glass fiber filters (Schleicher and Schuell No. 32) using a cell harvester (Brandel) and rinsed three times with ice-cold buffer. Filter bound radioactivity is measured by liquid scintillation spectrometry. Non-linear curve fitting of the overall data for each drug averaged for each concentration is done using Prism (GraphPad). […] The concentration of test compound producing 50% inhibition (IC50) of specific binding and the maximal extent of inhibition (Imax) are determined for the individual experiments with the same model used for the overall data and then the means ± SEM.s of the individual experiments are calculated.
Various compounds are or can be screened to determine their potential as modulators of [^35S]-TBPS binding in vitro. These assays are or can be performed in accordance with the above.

Row | SMILES | pIC50
1 | C[C@@H](Nc1ccc(C#N)cc1)[C@H]1CCC[C@H]2[C@@H]3CC[C@@H]4C[C@](C)(O)CC[C@@H]4C3CC[C@]12C (stereo partly drawn) [Example 51, 4-(((1R)-1-((1S,4aS,4bR,6aR,8R,10aS,12aS)-8-hydroxy-8,12a-dimethyloctadecahydrochrysen-1-yl)ethyl)amino)benzonitrile] | > 7.00
2 | CCOC[C@@]1(O)CC[C@@H]2C3CC[C@]4(C)[C@@H]([C@@H](C)NC(=O)c5ccc(F)cc5F)CCC[C@H]4[C@@H]3CC[C@@H]2C1 (stereo partly drawn) [Example 52, N-((1R)-1-((1S,4aS,4bR,6aR,8R,10aS,12aS)-8-(ethoxymethyl)-8-hydroxy-12a-methyloctadecahydrochrysen-1-yl)ethyl)-2,4-difluorobenzamide] | 6.00 to 7.00
3 | CCOC[C@@]1(O)CC[C@@H]2C3CC[C@]4(C)[C@@H]([C@H](C)NC(=O)c5ccc(F)cc5F)CCC[C@H]4[C@@H]3CC[C@@H]2C1 (stereo partly drawn) [Example 53, N-((1S)-1-((1S,4aS,4bR,6aR,8R,10aS,12aS)-8-(ethoxymethyl)-8-hydroxy-12a-methyloctadecahydrochrysen-1-yl)ethyl)-2,4-difluorobenzamide] | 6.00 to 7.00
4 | CC[C@]12CC[C@H]3[C@@H](CC[C@@H]4C[C@](C)(O)CC[C@@H]43)[C@@H]1CCC[C@@H]2[C@H](C)NC(=O)c1ccc(C#N)cc1 [Example 54, 4-cyano-N-((S)-1-((1S,4aS,4bR,6aR,8R,10aS,10bR,12aS)-12a-ethyl-8-hydroxy-8-methyloctadecahydrochrysen-1-yl)ethyl)benzamide] | 6.00 to 7.00
5 | CCOC[C@@]1(O)CC[C@@H]2C3CC[C@]4(C)[C@@H]([C@H](C)NC(=O)c5ccc(C#N)cc5F)CCC[C@H]4[C@@H]3CC[C@@H]2C1 (stereo partly drawn) [Example 55] | 6.00 to 7.00
6 | CCOC[C@@]1(O)CC[C@@H]2C3CC[C@]4(C)[C@@H]([C@@H](C)NC(=O)c5ccc(C#N)cc5F)CCC[C@H]4[C@@H]3CC[C@@H]2C1 (stereo partly drawn) [Example 56] | 6.00 to 7.00
